Measurements taken from patent publication US12692269B2, “Therapeutic compounds” (Genentech, Inc., priority 2019, dated 2026).

Experiments:
Format in all cases: binding
[1] = biological target: TEAD2 TAZ (amino acids 13-57) (Homo sapiens, UniProt Q15562); test: TEAD2-TAZ HTRF (TR-FRET) protein-protein interaction assay; settings: for TEAD2 TAZ HTRF combined: Max % Inhibition: TEAD2, TAZ peptide; for EC50: TEAD2-TAZ HTRF, TR-FRET 665 nm/615 nm, read-out: TEAD2 TAZ HTRF combined: EC50
In short: (§1)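 Compounds were first allowed 30 min to bind Eu-antibody-tagged His-TEAD (YAP-binding domain, aa 217-447). Biotinylated YAP 50-100 or TAZ 13-57 peptide complexed with streptavidin-XL665 was then added for 60 min at room temperature, and loss of TR-FRET signal gave IC50 or EC50 values.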

[2] = biological target: TEAD3 TAZ (amino acids 13-57) (Homo sapiens, UniProt Q99594); test: TEAD3-TAZ HTRF (TR-FRET) protein-protein interaction assay; settings: for TEAD3 TAZ HTRF combined: Max % Inhibition: TEAD3, TAZ peptide; for EC50: TEAD3-TAZ HTRF, TR-FRET 665 nm/615 nm, read-out: TEAD3 TAZ HTRF combined: EC50
In short: as §1

[3] = biological target: TEAD4 TAZ (amino acids 13-57) (Homo sapiens, UniProt Q15561); test: TEAD4-TAZ HTRF (TR-FRET) protein-protein interaction assay; settings: for TEAD4 TAZ HTRF combined: Max % Inhibition: TEAD4, TAZ peptide; for EC50: TEAD4-TAZ HTRF, TR-FRET 665 nm/615 nm, read-out: TEAD4 TAZ HTRF combined: EC50
In short: as §1

[4] = biological target: TEAD4 YAP50-100 (Homo sapiens, UniProt Q15561); test: TEAD4-YAP HTRF (TR-FRET) protein-protein interaction assay; settings: TEAD4, YAP peptide 50-100, HTRF; for EC50: read-out: TEAD4 YAP50-100 HTRF combined: EC50
In short: as §1

[5] = biological target: TEAD3 YAP50-100 (Homo sapiens, UniProt Q99594); test: TEAD3-YAP HTRF (TR-FRET) protein-protein interaction assay; settings: TEAD3, YAP peptide 50-100, HTRF; for EC50: read-out: TEAD3 YAP50-100 HTRF combined: EC50
In short: as §1

[6] = biological target: TEAD2 YAP50-100 (Homo sapiens, UniProt Q15562); test: TEAD2-YAP HTRF (TR-FRET) protein-protein interaction assay; settings: TEAD2, YAP peptide 50-100, HTRF; for EC50: read-out: TEAD2 YAP50-100 HTRF combined: EC50
In short: as §1

[7] = biological target: TEAD1 TAZ (amino acids 13-57) (Homo sapiens, UniProt P28347); test: TEAD1-TAZ HTRF (TR-FRET) protein-protein interaction assay; settings: for TEAD1 TAZ HTRF combined: Max % Inhibition: TEAD1, TAZ peptide; for EC50: TEAD1-TAZ HTRF, TR-FRET 665 nm/615 nm, read-out: TEAD1 TAZ HTRF combined: EC50
In short: as §1

[8] = biological target: TEAD1 YAP50-100 (Homo sapiens, UniProt P28347); test: TEAD1-YAP HTRF (TR-FRET) protein-protein interaction assay; settings: TEAD1, YAP peptide 50-100, HTRF; for EC50: read-out: TEAD1 YAP50-100 HTRF combined: EC50
In short: as §1

TEAD2 TAZ (amino acids 13-57), sequence (Q15562 217-447): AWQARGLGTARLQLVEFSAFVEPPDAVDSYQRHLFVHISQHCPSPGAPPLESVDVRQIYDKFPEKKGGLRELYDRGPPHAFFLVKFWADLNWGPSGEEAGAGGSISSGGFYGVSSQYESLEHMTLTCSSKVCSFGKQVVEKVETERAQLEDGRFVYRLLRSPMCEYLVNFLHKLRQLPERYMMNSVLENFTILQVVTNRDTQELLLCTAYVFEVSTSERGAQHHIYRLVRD
TEAD2 YAP50-100, sequence (Q15562 217-447): as above
TEAD3 TAZ (amino acids 13-57), sequence (Q99594 173-435 limits assumed): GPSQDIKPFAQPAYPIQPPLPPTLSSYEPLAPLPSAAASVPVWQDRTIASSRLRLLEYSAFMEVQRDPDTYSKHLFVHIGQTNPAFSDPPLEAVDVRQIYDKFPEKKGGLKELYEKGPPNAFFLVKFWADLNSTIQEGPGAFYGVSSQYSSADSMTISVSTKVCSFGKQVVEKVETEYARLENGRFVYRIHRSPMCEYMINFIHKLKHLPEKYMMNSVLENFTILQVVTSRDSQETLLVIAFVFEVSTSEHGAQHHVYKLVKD
TEAD3 YAP50-100, sequence (Q99594 173-435 limits assumed): as above
TEAD4 TAZ (amino acids 13-57), sequence (Q15561 217-434 limits assumed): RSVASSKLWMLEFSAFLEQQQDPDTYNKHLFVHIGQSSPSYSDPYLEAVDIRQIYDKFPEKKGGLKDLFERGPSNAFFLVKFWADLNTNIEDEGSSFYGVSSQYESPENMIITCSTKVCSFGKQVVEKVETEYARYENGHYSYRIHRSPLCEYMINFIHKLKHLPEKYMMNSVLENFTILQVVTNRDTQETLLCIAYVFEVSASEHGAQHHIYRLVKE
TEAD4 YAP50-100, sequence (Q15561 217-434 limits assumed): as above
TEAD1 TAZ (amino acids 13-57), sequence (P28347 167-426 limits assumed): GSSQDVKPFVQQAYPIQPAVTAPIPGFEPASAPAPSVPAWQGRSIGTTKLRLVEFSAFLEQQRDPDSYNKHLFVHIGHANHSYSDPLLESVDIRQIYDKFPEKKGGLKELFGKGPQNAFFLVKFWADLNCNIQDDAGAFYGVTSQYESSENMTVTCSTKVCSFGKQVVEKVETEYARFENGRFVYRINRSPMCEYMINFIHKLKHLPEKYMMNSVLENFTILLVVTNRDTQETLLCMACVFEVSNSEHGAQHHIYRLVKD
TEAD1 YAP50-100, sequence (P28347 167-426 limits assumed): as above

## Cc1nccnc1-c1nn2c(=O)cc(-c3ccc(-c4ccccc4)cc3)[nH]c2c1C(=O)N1CC(CF)C1 [Compound 60, 5-([1,1′-Biphenyl]-4-yl)-3-(3-(fluoromethyl)azetidine-1-carbonyl)-2-(3-methylpyrazin-2-yl)pyrazolo[1,5-a]pyrimidin-7(4H)-one]
[1]
  TEAD2 TAZ HTRF combined: Max % Inhibition: 66.5%
  EC50: 10 nM
[2]
  TEAD3 TAZ HTRF combined: Max % Inhibition: 74.0%
  EC50: 220 nM
[3]
  TEAD4 TAZ HTRF combined: Max % Inhibition: 64.0%
  EC50: 510 nM
[4]
  TEAD4 YAP50-100 HTRF combined: Max % Inhibition: 60.0%
  EC50: 610 nM
[5]
  TEAD3 YAP50-100 HTRF combined: Max % Inhibition: 78.0%
  EC50: 200 nM
[6]
  TEAD2 YAP50-100 HTRF combined: Max % Inhibition: 66.5%
  EC50: 10 nM
[7]
  TEAD1 TAZ HTRF combined: Max % Inhibition: 78.5%
  EC50: 40 nM
[8]
  TEAD1 YAP50-100 HTRF combined: Max % Inhibition: 80.0%
  EC50: 30 nM

## Cc1nccnc1-c1nn2c(=O)cc(-c3ccc(O[C@@H](c4ccccc4)C(F)(F)F)cc3)[nH]c2c1C(=O)N1CC(CF)C1 [Compound 67, (S)-3-(3-(Fluoromethyl)azetidine-1-carbonyl)-2-(3-methylpyrazin-2-yl)-5-(4-(2,2,2-trifluoro-1-phenylethoxy)phenyl)pyrazolo[1,5-a]pyrimidin-7(4H)-one]
[1]
  TEAD2 TAZ HTRF combined: Max % Inhibition: 89.0%
  EC50: 50 nM
[2]
  TEAD3 TAZ HTRF combined: Max % Inhibition: 71.0%
  EC50: 200 nM
[3]
  TEAD4 TAZ HTRF combined: Max % Inhibition: 71.5%
  EC50: 4000 nM
[4]
  TEAD4 YAP50-100 HTRF combined: Max % Inhibition: 72.5%
  EC50: 4250 nM
[5]
  TEAD3 YAP50-100 HTRF combined: Max % Inhibition: 79.0%
  EC50: 180 nM
[6]
  TEAD2 YAP50-100 HTRF combined: Max % Inhibition: 92.5%
  EC50: 50 nM
[7]
  TEAD1 TAZ HTRF combined: Max % Inhibition: 65.0%
  EC50: 220 nM
[8]
  TEAD1 YAP50-100 HTRF combined: Max % Inhibition: 69.0%
  EC50: 190 nM

## Cc1nccnc1-c1nn2c(=O)cc(-c3ccc(O[C@H](c4ccccc4)C(F)(F)F)cc3)[nH]c2c1C(=O)N1CC(CF)C1 [Compound 68, (R)-3-(3-(Fluoromethyl)azetidine-1-carbonyl)-2-(3-methylpyrazin-2-yl)-5-(4-(2,2,2-trifluoro-1-phenylethoxy)phenyl)pyrazolo[1,5-a]pyrimidin-7(4H)-one]
[1]
  TEAD2 TAZ HTRF combined: Max % Inhibition: 75.5%
  EC50: 60 nM
[2]
  TEAD3 TAZ HTRF combined: Max % Inhibition: 64.5%
  EC50: 590 nM
[3]
  TEAD4 TAZ HTRF combined: Max % Inhibition: 61.5%
  EC50: 4950 nM
[4]
  TEAD4 YAP50-100 HTRF combined: Max % Inhibition: 64.5%
  EC50: 5550 nM
[5]
  TEAD3 YAP50-100 HTRF combined: Max % Inhibition: 67.5%
  EC50: 510 nM
[6]
  TEAD2 YAP50-100 HTRF combined: Max % Inhibition: 84.0%
  EC50: 60 nM
[7]
  TEAD1 TAZ HTRF combined: Max % Inhibition: 63.0%
  EC50: 270 nM
[8]
  TEAD1 YAP50-100 HTRF combined: Max % Inhibition: 65.0%
  EC50: 190 nM

## Cc1nccnc1-c1nn2c(=O)cc(-c3ccc(C4CCCC4)cc3)[nH]c2c1C(=O)N1C[C@H](CF)[C@@H]1C [Compound 69, 5-(4-Cyclopentylphenyl)-3-((2S,3S)-3-(fluoromethyl)-2-methylazetidine-1-carbonyl)-2-(3-methylpyrazin-2-yl)pyrazolo[1,5-a]pyrimidin-7(4H)-one]
[1]
  TEAD2 TAZ HTRF combined: Max % Inhibition: 75.5%
  EC50: 10 nM
[2]
  TEAD3 TAZ HTRF combined: Max % Inhibition: 75.5%
  EC50: 120 nM
[3]
  TEAD4 TAZ HTRF combined: Max % Inhibition: 65.5%
  EC50: 130 nM
[4]
  TEAD4 YAP50-100 HTRF combined: Max % Inhibition: 62.5%
  EC50: 170 nM
[5]
  TEAD3 YAP50-100 HTRF combined: Max % Inhibition: 80.0%
  EC50: 110 nM
[6]
  TEAD2 YAP50-100 HTRF combined: Max % Inhibition: 76.0%
  EC50: 10 nM
[7]
  TEAD1 TAZ HTRF combined: Max % Inhibition: 73.5%
  EC50: 50 nM
[8]
  TEAD1 YAP50-100 HTRF combined: Max % Inhibition: 79.0%
  EC50: 40 nM

## CCCCCCC/C=C/c1cc(=O)n2nc(-c3nccnc3C)c(C(=O)N3C[C@H](CF)[C@@H]3C)c2[nH]1 [Compound 70, 3-((2S,3S)-3-(fluoromethyl)-2-methylazetidine-1-carbonyl)-2-(3-methylpyrazin-2-yl)-5-((E)-non-1-en-1-yl)pyrazolo[1,5-a]pyrimidin-7(4H)-one]
[1]
  TEAD2 TAZ HTRF combined: Max % Inhibition: 66.0%
  EC50: 10 nM
[2]
  TEAD3 TAZ HTRF combined: Max % Inhibition: 52.5%
  EC50: 30 nM
[3]
  TEAD4 TAZ HTRF combined: Max % Inhibition: 63.5%
  EC50: 970 nM
[4]
  TEAD4 YAP50-100 HTRF combined: Max % Inhibition: 58.0%
  EC50: 1300 nM
[5]
  TEAD3 YAP50-100 HTRF combined: Max % Inhibition: 64.0%
  EC50: 40 nM
[6]
  TEAD2 YAP50-100 HTRF combined: Max % Inhibition: 67.0%
[7]
  TEAD1 TAZ HTRF combined: Max % Inhibition: 54.5%
  EC50: 20 nM
[8]
  TEAD1 YAP50-100 HTRF combined: Max % Inhibition: 58.0%
  EC50: 10 nM

## CCCCCCCCCc1cc(=O)n2nc(-c3nccnc3C)c(C(=O)N3C[C@H](CF)[C@@H]3C)c2[nH]1 [Compound 71, 3-((2S,3S)-3-(fluoromethyl)-2-methylazetidine-1-carbonyl)-2-(3-methylpyrazin-2-yl)-5-nonylpyrazolo[1,5-a]pyrimidin-7(4H)-one]
[1]
  TEAD2 TAZ HTRF combined: Max % Inhibition: 64.0%
  EC50: 10 nM
[2]
  TEAD3 TAZ HTRF combined: Max % Inhibition: 49.0%
  EC50: 50 nM
[3]
  TEAD4 TAZ HTRF combined: Max % Inhibition: 56.5%
  EC50: 3000 nM
[4]
  TEAD4 YAP50-100 HTRF combined: Max % Inhibition: 48.5%
  EC50: 3450 nM
[5]
  TEAD3 YAP50-100 HTRF combined: Max % Inhibition: 61.0%
  EC50: 60 nM
[6]
  TEAD2 YAP50-100 HTRF combined: Max % Inhibition: 64.0%
  EC50: 10 nM
[7]
  TEAD1 TAZ HTRF combined: Max % Inhibition: 52.5%
  EC50: 50 nM
[8]
  TEAD1 YAP50-100 HTRF combined: Max % Inhibition: 53.0%
  EC50: 50 nM

## [2H]C1([2H])C([2H])([2H])C([2H])([2H])C([2H])(c2ccc(-c3cc(=O)n4nc(-c5nccnc5C)c(C(=O)N5C[C@H](CF)[C@@H]5C)c4[nH]3)cc2)C([2H])([2H])C1([2H])[2H] [Compound 72, 3-[(2S,35)-3-(fluoromethyl)-2-methyl-azetidine-1-carbonyl]-2-(3-methylpyrazin-2-yl)-5-[4-(1,2,2,3,3,4,4,5,5,6,6-undecadeuteriocyclohexyl)phenyl]-4H-pyrazolo[1,5-a]pyrimidin-7-one]
[1]
  TEAD2 TAZ HTRF combined: Max % Inhibition: 75.0%
  EC50: 20 nM
[2]
  TEAD3 TAZ HTRF combined: Max % Inhibition: 71.5%
  EC50: 170 nM
[3]
  TEAD4 TAZ HTRF combined: Max % Inhibition: 56.0%
  EC50: 30 nM
[4]
  TEAD4 YAP50-100 HTRF combined: Max % Inhibition: 54.0%
  EC50: 30 nM
[5]
  TEAD3 YAP50-100 HTRF combined: Max % Inhibition: 76.0%
  EC50: 160 nM
[6]
  TEAD2 YAP50-100 HTRF combined: Max % Inhibition: 73.0%
  EC50: 20 nM
[7]
  TEAD1 TAZ HTRF combined: Max % Inhibition: 74.0%
  EC50: 80 nM
[8]
  TEAD1 YAP50-100 HTRF combined: Max % Inhibition: 77.0%
  EC50: 70 nM
